Results published in patent publication US8603546B2, “Herbal supplement for increased muscle strength and endurance for athletes” (priority 1999, dated 2013).

Legend:
athletes [1] = assay: Strength group: maximum weight lifted in 6 basic exercises by athletes taking galanthamine; format: in vivo, human
Text: (§1) 30 healthy individuals, both male and female, ages 18-28, are separated into 2 groups, 15 persons each, to observe the changes in their strength and endurance after administration of galanthamine and regular physical training. All subjects are athletes who have exercised regularly in the gym for 1 to 3 years. During the 3 week test period, all subjects train about 4 times a week with a special exercise program for the first week as described below, supplemented with the subjects' own preferred training schedule. Strength and endurance are observed through 6 basic exercises involving the major muscle groups as follows:
10 participants in each group take galanthamine, the other 5 take a placebo. The dosage of galanthamine is 7.5 mg daily taken with a meal 1.5-2 hours before the workout on training days and 5 mg daily on non-training days divided into two equal portions taken in the morning and in the afternoon. 2. The Strength Group. • a. The initial level. Before administration of galanthamine the initial strength level of each subject is determined and is defined as the maximum weight a subject is able to lift in all 6 exercises. • b. The training schedule. The subjects use a split training method, that is they alternate on one day training their chest, back and shoulder muscles (performing exercises #1, 2 and 3, respectively) and the next day train their biceps, triceps and legs (exercises #4, 5 and 6, respectively). The subjects do 5-6 sets in each exercise using a pyramidal principle for increasing their strength, i.e. they start every exercise doing 10-15 repetitions using a middle weight, then increase the weight gradually, being able to do fewer repetitions, until the maximum weight they are able to lift for one repetition with difficulty is reached. 2 sets are then performed using the same or 5-10% less weight. This maximum weight is considered the “record for the day”, and is compared to the initial level. • c. The results. An increase in strength is observed almost immediately after administration of galanthamine. […]

athletes [2] = assay: Endurance group: maximum repetitions in 6 basic exercises by athletes taking galanthamine; format: in vivo, human; details: vs initial level
Text: as §1
10 participants in each group take galanthamine, the other 5 take a placebo. The dosage of galanthamine is 7.5 mg daily taken with a meal 1.5-2 hours before the workout on training days and 5 mg daily on non-training days divided into two equal portions taken in the morning and in the afternoon. 2. The Strength Group. • a. The initial level. Before administration of galanthamine the initial strength level of each subject is determined and is defined as the maximum weight a subject is able to lift in all 6 exercises. • b. The training schedule. […]

COc1ccc2c3c1O[C@H]1C[C@@H](O)C=C[C@@]31CCN(C)C2 [galanthamine]
average increase in strength (athletes [1]; after 1 week, 7.5 mg daily on training days, 5 mg daily on non-training days, vs initial level): 4-7% | total increase in strength (athletes [1]; by the third week, 7.5 mg daily on training days, 5 mg daily on non-training days, vs initial level): 10-13% | increase in strength reported by athletes (athletes [1]; continued galanthamine for up to 3 months, during the entire period): over 20% | average endurance increase (athletes [2]; after the first week, 7.5 mg daily on training days, 5 mg daily on non-training days): 11% | average endurance increase (athletes [2]; end of the trial, after 3 weeks of treatment): 24%
